Tested on: glutathione peroxidase (GSH-PX)
Test: Glutathione peroxidase (GSH-PX) activity in keratinocytes
Assay type: cell-based, human
Conditions: 50 nM Se (sodium selenite 50 nM; selenium yeast 3.95 μg/ml), control cells
Description: Cultures were maintained at 37° C. in a humidified 5% CO2 atmosphere.

Compound: O=[Se](O)O [sodium selenite]
- GSH-PX activity: 91.44±10.37 mU/mg protein
- induction of GSH-PX activity, fold increase vs controls (48 h): 3.365 fold
